According to patent US20170348375A1, “DISLODGEMENT AND RELEASE OF HSC FROM THE BONE MARROW STEM CELL NICHE USING ALPHA9 INTEGRIN ANTAGONISTS” (COMMONWEALTH SCIENTIFIC AND INDUSTRIAL RESEARCH ORGANISATION, priority 2014, published 2017):
“Also recorded” adds a separate entry of the source.

Tests used:
[1] = target: T1, human integrin α4β1 (overexpressed in LN18 α4β1 cells; pMSCV-hITGA4-IRES-hITGB1) (Homo sapiens, UniProt P05556+P13612); test: Competitive inhibition of R-BC154 (50 nM) binding to LN18 α4β1 cells by BOP, flow cytometry
T1 construct: expressed in transfected cells; host or cells: LN18 human glioblastoma cells (ATCC CRL-2610), retrovirally transduced with pMSCV-hITGA4-IRES-hITGB1
Procedure: (§1) Stable LN18 cells over-expressing human integrin α4β1 and α9β1 were generated via retroviral transduction of human glioblastoma LN18 cell lines. Silencing of background α4 expression in parental and α9β1 transduced LN18 cells was achieved by retroviral vector delivery of α4 shRNA.
(§2) (a) Chemical structure of α9β1/α4β1 integrin antagonist BOP (2). […] Data is mean±SEM (n=3) (d) Analysis of the WBC, (e) LSK and (f) LSKSLAM content in the peripheral blood of mice treated with BOP (10 mg/kg) over 90 mins. Data is mean±SEM (n=5 per time point).
(§3) Flow cytometric analysis was performed using an LSR II (BD Biosciences) as previously described in J. Grassinger, et al Blood, 2009, 114, 49-59. […] For BM and PB analysis, up to 5×10^6 cells were analysed at a rate of 10-20 k cell events/sec. For analysis of PB LSKSLAM, up to 1×10^6 events were saved. Cell sorting was performed on a Cytopeia Influx (BD) as previously described in J. Grassinger, et al.
(§4) Stable LN18 cells ((ATCC number: CRL-2610) over-expressing integrin α4β1 (LN18 α4β1) or α9β1 (LN18 α9β1)) were generated by retroviral transduction using the pMSCV-hITGA4-IRES-hITGB1 and pMSCV-hITGA9-IRES-hITGB1 vectors as previously described in J Grassinger, et al Blood, 2009, 114, 49-59 and were maintained in DMEM supplemented with 2 mM L-glutamate in 10% FBS. […]

[2] = target: T2, human integrin α9β1 (overexpressed in LN18 α9β1 cells, α4-silenced; pMSCV-hITGA9-IRES-hITGB1) (Homo sapiens, UniProt P05556+Q13797); test: Competitive inhibition of R-BC154 (50 nM) binding to LN18 α9β1 cells by BOP, flow cytometry
T2 construct: expressed in transfected cells; host or cells: LN18 human glioblastoma cells (ATCC CRL-2610), retrovirally transduced with pMSCV-hITGA9-IRES-hITGB1, α4 silenced with pSM2c-shITGA4
Procedure: as §1, §2, §3, §4

[3] = test system: α9β1 and α4β1 integrin binding on HSC and progenitors (LSK and LSKSLAM); test: Competitive displacement of R-BC154 binding to LSK and LSKSLAM cells; assay type: cell-based, mouse; conditions: 500 nM, 1 mM Ca2+/Mg2+
Procedure: (§5) Cells were incubated for 90 min at 37° C., washed with PBS, pelleted by centrifugation and resuspended in PBS (200 μl) for flow cytometric analysis. % Max mean fluorescence intensity (MFI) was plotted against the log concentration of BOP and the data fitted to a ligand binding-sigmoidal dose-response curve and IC50 values obtained from graphs.

α4β1 integrin = target: T3, α4β1 integrin (Homo sapiens, UniProt P05556+P13612); test: Competitive inhibition of R-BC154 binding to α4β1 LN18 cells; conditions: 1 mM Ca2+/Mg2+
T3 construct: expressed in transfected cells; host or cells: human glioblastoma LN18 (ATCC CRL-2610), retrovirally transduced
Procedure: as §5

α9β1 = α9β1 (Homo sapiens, UniProt P05556+Q13797); conditions: Pepinsky et al (2002) FIG. 4b; cited from earlier work
α9β1 integrin = target: T4, α9β1 integrin (Homo sapiens, UniProt P05556+Q13797); test: Competitive inhibition of R-BC154 binding to α9β1 LN18 cells; conditions: 1 mM Ca2+/Mg2+
T4 construct: expressed in transfected cells; host or cells: human glioblastoma LN18 (ATCC CRL-2610), retrovirally transduced; α4 silenced with pSM2c-shITGA4
Procedure: as §5

[4] = test system: α4β1 and α9β1 integrins binding to VCAM-1 and Opn; conditions: in vitro; cited from earlier work
[5] = test system: WBC, LSK and LSKSLAM in PB; test: Mobilization of HSC and progenitors into peripheral blood; assay type: in vivo, mouse
Procedure: For mobilization experiments, all mice received subcutaneous injections at 100 μl/10 gm body weight and PB was harvested by throat bleed using EDTA coated syringes.

T1 sequence (P13612 34-1032): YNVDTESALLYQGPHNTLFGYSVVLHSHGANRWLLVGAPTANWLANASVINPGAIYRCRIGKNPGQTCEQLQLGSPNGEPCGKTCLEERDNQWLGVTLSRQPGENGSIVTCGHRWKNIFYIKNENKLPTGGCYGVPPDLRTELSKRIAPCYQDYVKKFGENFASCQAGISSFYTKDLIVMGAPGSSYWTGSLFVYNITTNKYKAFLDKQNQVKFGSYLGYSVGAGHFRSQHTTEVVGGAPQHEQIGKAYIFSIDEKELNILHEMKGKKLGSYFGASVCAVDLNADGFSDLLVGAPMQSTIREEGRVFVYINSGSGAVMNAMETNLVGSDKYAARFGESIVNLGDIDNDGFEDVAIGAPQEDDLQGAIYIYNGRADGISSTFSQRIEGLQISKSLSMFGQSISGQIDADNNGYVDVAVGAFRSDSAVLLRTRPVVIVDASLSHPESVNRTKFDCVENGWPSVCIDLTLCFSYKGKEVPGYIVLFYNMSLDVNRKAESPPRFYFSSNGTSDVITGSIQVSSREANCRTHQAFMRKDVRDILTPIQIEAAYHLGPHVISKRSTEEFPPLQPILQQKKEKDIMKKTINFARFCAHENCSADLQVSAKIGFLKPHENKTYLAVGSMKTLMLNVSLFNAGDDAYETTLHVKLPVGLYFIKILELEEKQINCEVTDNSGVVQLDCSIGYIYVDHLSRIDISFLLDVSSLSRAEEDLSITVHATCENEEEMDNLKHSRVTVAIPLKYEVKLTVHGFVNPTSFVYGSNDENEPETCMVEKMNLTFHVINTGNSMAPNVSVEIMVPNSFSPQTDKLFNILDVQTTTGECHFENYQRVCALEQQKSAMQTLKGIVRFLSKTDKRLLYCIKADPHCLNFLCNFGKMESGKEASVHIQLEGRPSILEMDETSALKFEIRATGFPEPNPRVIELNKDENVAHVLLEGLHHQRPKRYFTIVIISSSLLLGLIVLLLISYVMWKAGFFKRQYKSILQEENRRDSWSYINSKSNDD
T1 sequence (P05556 21-798): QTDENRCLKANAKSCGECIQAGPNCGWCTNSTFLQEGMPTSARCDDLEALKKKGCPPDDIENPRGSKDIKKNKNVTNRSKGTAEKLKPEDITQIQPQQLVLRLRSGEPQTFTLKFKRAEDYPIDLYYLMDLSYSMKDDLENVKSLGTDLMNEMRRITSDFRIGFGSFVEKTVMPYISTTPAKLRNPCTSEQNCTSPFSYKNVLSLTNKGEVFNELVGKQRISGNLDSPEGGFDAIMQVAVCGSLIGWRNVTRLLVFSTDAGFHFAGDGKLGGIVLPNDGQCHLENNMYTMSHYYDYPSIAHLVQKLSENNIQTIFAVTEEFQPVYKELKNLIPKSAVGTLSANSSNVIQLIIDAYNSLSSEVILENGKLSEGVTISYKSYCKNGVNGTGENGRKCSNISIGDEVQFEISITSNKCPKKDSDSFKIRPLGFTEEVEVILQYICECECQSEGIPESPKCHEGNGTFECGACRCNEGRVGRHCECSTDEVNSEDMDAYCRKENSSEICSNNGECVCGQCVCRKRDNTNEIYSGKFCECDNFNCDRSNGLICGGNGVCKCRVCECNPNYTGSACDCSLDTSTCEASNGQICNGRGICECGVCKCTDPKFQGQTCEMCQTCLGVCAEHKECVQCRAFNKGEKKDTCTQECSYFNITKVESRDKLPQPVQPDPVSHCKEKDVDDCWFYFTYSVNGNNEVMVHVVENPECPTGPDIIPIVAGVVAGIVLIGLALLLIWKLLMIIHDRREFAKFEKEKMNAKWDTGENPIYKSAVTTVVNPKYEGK
T3 sequence (P13612 34-1032): as the sequence (P13612 34-1032) above
T3 sequence (P05556 21-798): as the sequence (P05556 21-798) above
Sequence of α9β1 (Q13797 30-1035): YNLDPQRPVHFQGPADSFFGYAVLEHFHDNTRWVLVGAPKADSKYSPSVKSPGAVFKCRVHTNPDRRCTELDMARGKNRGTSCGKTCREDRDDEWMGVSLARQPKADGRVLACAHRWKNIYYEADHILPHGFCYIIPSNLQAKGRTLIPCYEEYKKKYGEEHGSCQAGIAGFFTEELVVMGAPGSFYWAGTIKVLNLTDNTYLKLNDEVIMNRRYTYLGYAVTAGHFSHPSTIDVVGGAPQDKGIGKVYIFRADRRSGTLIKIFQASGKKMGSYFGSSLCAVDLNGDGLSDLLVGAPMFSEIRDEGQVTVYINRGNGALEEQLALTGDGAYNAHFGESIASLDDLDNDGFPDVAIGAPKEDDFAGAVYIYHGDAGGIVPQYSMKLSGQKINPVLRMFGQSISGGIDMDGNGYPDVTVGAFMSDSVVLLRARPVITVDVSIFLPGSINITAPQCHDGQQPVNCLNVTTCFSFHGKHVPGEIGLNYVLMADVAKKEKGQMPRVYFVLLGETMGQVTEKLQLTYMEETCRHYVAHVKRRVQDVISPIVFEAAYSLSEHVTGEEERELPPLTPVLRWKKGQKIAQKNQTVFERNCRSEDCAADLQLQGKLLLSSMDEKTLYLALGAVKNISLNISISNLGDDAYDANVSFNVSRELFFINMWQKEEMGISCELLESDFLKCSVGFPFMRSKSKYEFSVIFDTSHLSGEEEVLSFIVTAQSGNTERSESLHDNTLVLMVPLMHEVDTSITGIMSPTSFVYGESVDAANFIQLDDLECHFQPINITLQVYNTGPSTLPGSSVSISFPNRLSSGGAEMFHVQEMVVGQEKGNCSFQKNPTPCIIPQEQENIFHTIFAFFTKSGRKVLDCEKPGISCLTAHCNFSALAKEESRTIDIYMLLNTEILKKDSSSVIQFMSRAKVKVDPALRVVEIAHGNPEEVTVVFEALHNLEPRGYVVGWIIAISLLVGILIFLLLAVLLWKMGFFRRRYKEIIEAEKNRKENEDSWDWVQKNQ
Sequence of α9β1 (P05556 21-798): as the sequence (P05556 21-798) above
T2 sequence (Q13797 30-1035): as the sequence (Q13797 30-1035) above
T2 sequence (P05556 21-798): as the sequence (P05556 21-798) above
T4 sequence (Q13797 30-1035): as the sequence (Q13797 30-1035) above
T4 sequence (P05556 21-798): as the sequence (P05556 21-798) above

| IC50 [1] | IC50 [2] | inhibition of α4β1 integrin (competitive inhibition of R-BC154 binding) (α4β1 integrin) | inhibition of α9β1 integrin (competitive inhibition of R-BC154 binding) (α9β1 integrin) | Structure (SMILES) | inhibition of α9β1 and α4β1 integrin binding on HSC and progenitors (displacement of R-BC154) [3] | off-rates for α9β1 compared to α4β1 (α9β1) | inhibition of binding of α4β1 and α9β1 integrins to VCAM-1 and Opn [4] | PB WBC, LSK and LSKSLAM compared to the saline control ([5]; 10 mg/kg, C57BL/6 mice, up to 90 mins) | mobilization of HSC with long-term multi-lineage engraftment potential ([5]; summary statement) |
| --- | --- | --- | --- | --- | --- | --- | --- | --- | --- |
| 2.39 nM | 2.62 nM | – | – | O=C(O)[C@H](Cc1ccc(OC(=O)N2CCCC2)cc1)NC(=O)[C@@H]1CCCN1S(=O)(=O)c1ccccc1 [BOP (2), N-(Benzenesulfonyl)-L-prolyl-L-O-(1-pyrrolidinylcarbonyl)tyrosine] | – | – | – | – | – |
| – | – | potent inhibitor | potent inhibitor | O=C(O)[C@H](Cc1ccc(OC(=O)N2CCCC2)cc1)NC(=O)[C@@H]1CCCN1S(=O)(=O)c1ccccc1 [BOP, N-(Benzenesulfonyl)-L-prolyl-L-O-(1-pyrrolidinylcarbonyl)tyrosine] | effectively inhibited | significantly reduced off-rates | nanomolar inhibitory potencies; also recorded: can inhibit | significant increases | effectively and rapidly mobilized |
